According to patent US9464064B2, “HCV helicase inhibitors and methods of use thereof” (University of Kansas, priority 2011, dated 2016):
Read-outs that look alike come from different tables or passages of the source.

Legend:
MBHA DNA substrate = assay: Modified FID assay, SYBR Green I; format: binding; settings: for DNA binding (%): SYBR Green I-FID, average (±SD) percent bound at 100 μM; for FID (SG) % Displaced @ 100 μM / EC50: SYBR Green; for EC50: read-out: FID (SG) EC50 (converted)
Method in brief: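 Fluorescent intercalator displacement with SYBR Green I (0.68 μM) in place of ethidium bromide and MBHA DNA at 0.32 μM. Normalized data fit to concentration-response equation; EC50 given as mean ± SD of three independent triplicate titrations.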

[1] = target: T1, HCV NS3 helicase NS3h_1b(con1) (Hepatitis C virus genotype 1b, UniProt Q9WMX2); assay: biochemical; format: biochemical, hepatitis C virus genotype 1b(con1)
T1 construct: truncated C-terminally His-tagged NS3 proteins lacking the N-terminal protease, called NS3h; His-tag (C); made in house
Method in brief: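 Molecular beacon helicase assay with His-tagged recombinant NS3 and a Cy5/IBRQ-labelled partially duplex DNA substrate (25 bp) or Tye665-labelled RNA substrate (19 bp). Reactions started with 1 mM ATP. Screening read fluorescence before and 30 min after ATP (ex 643/em 670 nm). For IC50, 5% v/v DMSO was present, initial velocities came from first-order decay fits, and a Hill equation was applied.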

Huh-7.5 cells = assay: Cell viability assay ([…]-GLO); format: cell-based, human; settings: for Cell viability (% viable): 10 μM compound, triplicate, average ± SD
Method in brief: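 Huh-7.5 cells exposed to compound for 72 hours, washed, then lysed in a 1:1 mix of growth medium and […]-GLO reagent. After 30 minutes at 23° C., luminescence was read for 1 second as a measure of viability.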

[2] = target: T2, E. coli SSB-Cy5-dT15 complex (Escherichia coli, UniProt P0AGE0); assay: Escherichia coli SSB Cy5-dT15 binding assay (fluorescence polarization); settings: for IC50: disruption of Cy5-dT15-SSB complex, read-out: Cy5-dT15-SSB Binding IC50; for inhibition at 100 µM: read-out: SSB % Displaced @ 100 μM; for EC50: read-out: SSB EC50
T2 construct: purchased Promega
Method in brief: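 Fluorescence polarization with 5 nM Cy5-dT15 and 20 nM E. coli SSB in 25 mM MOPS pH 7.5, 1.25 mM MgCl2, BSA, Tween 20, DTT. Screening at 1% DMSO; IC50 runs at 5% DMSO. Excitation 635 nm, parallel and perpendicular emission at 667 nm.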

[3] = DNA-based MBHA, genotype 1b, read-out: DNA Helicase NS3h_1b IC50 (μM) ± SD
[4] = MBHA, DNA unwinding, mean ± SD of three titrations, read-out: Helicase IC50
[5] = genotype 1b (con1), read-out: Target Potency MBHA (IC50 avg., μM) 1b (con1)
[6] = standard HCV helicase MBHA (Table 9), read-out: DNA Unwinding IC50

T1 sequence (Q9WMX2 1192-1657): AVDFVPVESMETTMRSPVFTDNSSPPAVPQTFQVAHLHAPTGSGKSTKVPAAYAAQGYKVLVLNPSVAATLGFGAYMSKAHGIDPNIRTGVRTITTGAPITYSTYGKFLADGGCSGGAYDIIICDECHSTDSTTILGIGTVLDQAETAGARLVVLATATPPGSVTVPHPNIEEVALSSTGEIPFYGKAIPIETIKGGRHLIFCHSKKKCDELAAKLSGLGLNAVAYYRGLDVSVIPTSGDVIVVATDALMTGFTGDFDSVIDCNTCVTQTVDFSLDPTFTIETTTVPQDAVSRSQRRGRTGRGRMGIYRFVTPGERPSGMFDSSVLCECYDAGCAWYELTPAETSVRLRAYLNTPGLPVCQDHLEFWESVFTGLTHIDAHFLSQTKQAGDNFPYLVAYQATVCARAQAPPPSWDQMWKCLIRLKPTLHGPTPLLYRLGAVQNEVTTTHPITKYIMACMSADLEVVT
T2 sequence (P0AGE0 2-178, one chain of several): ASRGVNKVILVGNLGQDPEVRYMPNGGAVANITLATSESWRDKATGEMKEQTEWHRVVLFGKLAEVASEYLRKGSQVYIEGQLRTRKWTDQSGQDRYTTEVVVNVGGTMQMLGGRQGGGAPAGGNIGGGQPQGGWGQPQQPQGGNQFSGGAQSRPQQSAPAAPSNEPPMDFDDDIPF

SMILES	DNA binding (%) (MBHA DNA substrate)	FID (SG) % Displaced @ 100 μM (MBHA DNA substrate) [%]	EC50 (MBHA DNA substrate) [µM]	IC50 [1, 3] [µM]	IC50 [1, 4] [µM]	IC50 [1, 5] [µM]	IC50 [1, 6] [µM]	Cell Viability (% @ 10 μM) (Huh-7.5 cells) [%]	Cell viability (% viable) (Huh-7.5 cells) [%]	IC50 [2] [µM]	inhibition at 100 µM [2] [%]	EC50 [2] [µM]
Cc1ccc2nc(-c3ccc4nc(-c5ccc(NC(=O)c6ccc(C(F)(F)F)cc6)cc5)sc4c3)sc2c1S(=O)(=O)O [Compound 12, 6-methyl-2′-(4-(4-(trifluoromethyl)benzamido)phenyl)-[2,6′-bibenzo[d]thiazole]-7-sulfonic acid]	69 ± 9	69 ± 9	29 ± 9	2 ± 0.4	1.8 ± 0.4	1.8 ± 0.4	2	90 ± 4	90 ± 4	3	80	4 ± 2
Cc1ccc2nc(-c3ccc4nc(-c5ccc(NC(=O)c6ccc(C(C)(C)C)cc6)cc5)sc4c3)sc2c1S(=O)(=O)O [Compound 13, 2′-(4-(4-(tert-butyl)benzamido)phenyl)-6-methyl-[2,6′-bibenzo[d]thiazole]-7-sulfonic acid]	72 ± 19	72 ± 19	16 ± 6	8 ± 1	8.2 ± 1	8.2 ± 1	8 ± 1	87 ± 4	87 ± 4	32 ± 7	80	32 ± 7
Cc1ccc2nc(-c3ccc4nc(-c5ccc(NC(=O)c6ccc(N(C)C)cc6)cc5)sc4c3)sc2c1S(=O)(=O)O [Compound 14, 2′-(4-(4-(dimethylamino)benzamido)phenyl)-6-methyl-[2,6′-bibenzo[d]thiazole]-7-sulfonic acid]	44 ± 4	44 ± 4	> 100	–	11 ± 6.7	11 ± 6.7	11 ± 7	94 ± 5	94 ± 5	4 ± 1	98	4 ± 1
Cc1ccc2nc(-c3ccc4nc(-c5ccc(NC(=O)c6ccc(Br)cc6)cc5)sc4c3)sc2c1S(=O)(=O)O [Compound 15, 2′-(4-(4-bromobenzamido)phenyl)-6-methyl-[2,6′-bibenzo[d]thiazole]-7-sulfonic acid]	70 ± 9	70 ± 9	30 ± 13	5 ± 3.9	5.2 ± 4	5.2 ± 4	5 ± 4	113 ± 5	113 ± 5	27 ± 6	91	27 ± 6
Cc1ccc2nc(-c3ccc4nc(-c5ccc(NC(=O)c6ccc(NC(=O)OCC7c8ccccc8-c8ccccc87)cc6)cc5)sc4c3)sc2c1S(=O)(=O)O [Compound 16, 2′-(4-(4-((((9H-fluoren-9-yl)methoxy)carbonyl)amino)benzamido)phenyl)-6-methyl-[2,6′-bibenzo[d]thiazole]-7-sulfonic acid]	76 ± 5	76 ± 5	6 ± 2	–	5.4 ± 1	5.4 ± 1	5 ± 1	92 ± 4	92 ± 4	179 ± 239	53	> 100
Cc1ccc2nc(-c3ccc4nc(-c5ccc(NC(=O)c6cccc(Cl)c6)cc5)sc4c3)sc2c1S(=O)(=O)O [Compound 17, 2′-(4-(3-chlorobenzamido)phenyl)-6-methyl-[2,6′-bibenzo[d]thiazole]-7-sulfonic acid]	41 ± 11	41 ± 11	> 100	3 ± 0.8	2.6 ± 1	2.6 ± 1	3 ± 1	112 ± 4	112 ± 4	201 ± 119	47	> 100
Cc1ccc2nc(-c3ccc4nc(-c5ccc(NC(=O)c6ccc(Cl)c(Cl)c6)cc5)sc4c3)sc2c1S(=O)(=O)O [Compound 18, 2′-(4-(3,4-dichlorobenzamido)phenyl)-6-methyl-[2,6′-bibenzo[d]thiazole]-7-sulfonic acid]	67 ± 12	67 ± 12	30 ± 32	4 ± 1	3.7 ± 1	3.7 ± 1	4 ± 1	114 ± 7	114 ± 7	128 ± 57	53	> 100
Cc1ccc2nc(-c3ccc4nc(-c5ccc(NC(=O)c6ccccc6C(F)(F)F)cc5)sc4c3)sc2c1S(=O)(=O)O [Compound 19, 6-methyl-2′-(4-(2-(trifluoromethyl)benzamido)phenyl)-[2,6′-bibenzo[d]thiazole]-7-sulfonic acid]	30 ± 15	30 ± 15	> 100	–	14 ± 1	14.1 ± 1	14 ± 1	112 ± 1	112 ± 1	13 ± 2	92	13 ± 2
Cc1ccc2nc(-c3ccc4nc(-c5ccc(NC(=O)c6cccc(C(F)(F)F)c6)cc5)sc4c3)sc2c1S(=O)(=O)O [Compound 20, 6-methyl-2′-(4-(3-(trifluoromethyl)benzamido)phenyl)-[2,6′-bibenzo[d]thiazole]-7-sulfonic acid]	46 ± 10	46 ± 10	> 100	–	20 ± 12	19.7 ± 12	–	121 ± 3	121 ± 3	–	23	> 100
Cc1ccc2nc(-c3ccc4nc(-c5ccc(NC(=O)c6c(F)cccc6C(F)(F)F)cc5)sc4c3)sc2c1S(=O)(=O)O [Compound 21, 2′-(4-(2-fluoro-6-(trifluoromethyl)benzamido)phenyl)-6-methyl-[2,6′-bibenzo[d]thiazole]-7-sulfonic acid]	66 ± 40	66 ± 40	64 ± 34	–	17 ± 6	16.8 ± 6	17 ± 6	122 ± 2	122 ± 2	13 ± 1	96	13 ± 1
Cc1ccc2nc(-c3ccc4nc(-c5ccc(NC(=O)c6cccc(C(F)(F)F)c6F)cc5)sc4c3)sc2c1S(=O)(=O)O [Compound 22, 2′-(4-(2-fluoro-3-(trifluoromethyl)benzamido)phenyl)-6-methyl-[2,6′-bibenzo[d]thiazole]-7-sulfonic acid]	49 ± 27	49 ± 27	> 100	–	9.2 ± 3	9.2 ± 3	9 ± 3	122 ± 1	122 ± 1	71 ± 13	63	71 ± 13
